According to patent US20220372585A1, “Sensors for Aromatic Compounds and Methods of Making and Using Same” (Washington University, priority 2021, published 2022):
Values joined by “and” are separate entries in the source; they are usually repeats but may differ in a detail not shown here. Identical values can stand only once. “Also recorded” adds a separate entry of the source.

Tests used:
[1] = system: TynA-FeaR sensors (best performing variants); experiment: TynA-FeaR sensor activity and specificity in richer media, amines and carboxylic acids; type: cell-based, E. coli; settings: 1 mM, 24 h; minimal medium with casamino acids and LB medium; FIG. 29
Text: FIG. 29A-FIG. 29B. TynA-FeaR sensor activity and specificity in richer media, related to FIG. 6A-FIG. 6E. […] PtynA was regulated by the specified variants of TynA and FeaR. The response of the G494S TynA mutant sensors was not determined (ND) for DOPAC, PAA, HPAA, or IAA. Values and error bars are the average and standard deviation of biological triplicate, respectively.
To further confirm the specificity of the best performing sensors, the response of each to the four amines and the four respective carboxylic acids, 3,4-dihydroxyphenylacetic acid (DOPAC), phenylacetic acid (PAA), 4-hydroxyphenylacetic acid (HPAA), and indole-3-acetic acid (IAA) was tested in minimal medium with casamino acids and LB medium (see e.g., FIG. 29A-FIG. 29B). […] All mutant sensors remained specific to PEA or Tyra in minimal medium with casamino acids.
(§1) Flow cytometry was performed as previously described. […] Cytometry data was gated by forward and side scatter.

[2] = system: G494S TynA with A81T FeaR; type: cell-based, E. coli MG1655; settings: G494S*; 24 h; FIG. 4C
Protocol: as §1

wild-type TyrR = target: T1, wild-type TyrR (Escherichia coli, UniProt P07604); experiment: cell-based; type: cell-based, E. coli
T1 construct: tyrR (WT); expressed in transfected cells; host or cells: E. coli Nissle 1917 (EcN)
T1 sequence (P07604 whole entry): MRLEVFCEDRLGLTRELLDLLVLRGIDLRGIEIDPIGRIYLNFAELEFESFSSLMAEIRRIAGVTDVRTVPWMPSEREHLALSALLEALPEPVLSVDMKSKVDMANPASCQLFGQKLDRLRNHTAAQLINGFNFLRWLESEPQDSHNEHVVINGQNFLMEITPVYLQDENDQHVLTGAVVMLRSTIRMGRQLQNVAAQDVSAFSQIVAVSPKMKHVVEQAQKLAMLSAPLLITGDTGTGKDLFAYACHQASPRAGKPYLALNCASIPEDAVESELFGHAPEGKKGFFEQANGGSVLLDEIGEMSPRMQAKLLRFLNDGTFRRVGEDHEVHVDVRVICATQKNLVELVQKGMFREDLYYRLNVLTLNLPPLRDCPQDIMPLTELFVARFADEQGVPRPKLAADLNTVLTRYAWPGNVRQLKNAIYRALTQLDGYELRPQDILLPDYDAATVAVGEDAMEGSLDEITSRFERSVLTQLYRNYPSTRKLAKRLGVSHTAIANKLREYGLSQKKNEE
Protocol: (§2) Everything but (Eb) medium was prepared by supplementing M9 minimal medium with 1 mM MgSO4, […]), 0.4% w/v glucose, and all non-aromatic amino acids (0.8 mM alanine, 5 mM arginine, 0.4 mM asparagine, 0.4 mM aspartate, 0.1 mM cysteine, 0.6 mM glutamate, 0.6 mM glutamine, 0.8 mM glycine, 0.2 mM histidine, 0.4 mM isoleucine, 0.8 mM leucine, 0.4 mM lysine, 0.2 mM methionine, 0.4 mM proline, 10 mM serine, 0.4 mM threonine, and 0.6 mM valine). […] Experimental cultures were prepared by diluting overnight cultures 200× into 0.6 mL fresh Eb medium supplemented with the respective ligands (Phe and Tyr) in 2 mL 96-deep well plates (Eppendorf, Hamburg, Germany). Cultures were grown for 8 h at 37° C. and 250 rpm before sampled for fluorimetry or flow cytometry analysis. All medium was supplemented with the relevant antibiotics for plasmid maintenance ([…]).
(§3) […] culture samples were collected and transferred to 96-well assay microplates (clear, flat bottom black, Greiner Bio-One). The fluorescence and culture absorbance (Abs) were measured using a Tecan microplate reader (Infinite M200 Pro) as previously described. The fluorescence of GFP was measured with an excitation at 483 nm and emission at 530 nm. The Abs of the samples was measured at 600 nm. The measured fluorescence was normalized by dividing by the Abs and subtracting the same ratio obtained from non-fluorescent wild-type cells (Equation 1).
as §1

E274Q+D103S TyrR = target: T2, E274Q+D103S TyrR (Escherichia coli, UniProt P07604, D103S/E274Q); experiment: cell-based; type: cell-based, E. coli; settings: ligand alone, listed as Tyr
T2 construct: expressed in transfected cells; host or cells: E. coli Nissle 1917 (EcN), plasmid pAGR159
T2 sequence (P07604 whole entry D103S/E274Q): as the sequence (P07604 whole entry) above, with D103S, E274Q counted along it
Protocol: as §2, §3, §1

R10F TyrR = target: T3, R10F TyrR (Escherichia coli, UniProt P07604, R10F); experiment: cell-based; type: cell-based, E. coli
T3 construct: expressed in transfected cells; host or cells: E. coli Nissle 1917 (EcN), plasmid pAGR473
T3 sequence (P07604 whole entry R10F): as the sequence (P07604 whole entry) above, with R10F counted along it
Protocol: as §2, §3, §1

E274Q+T14V TyrR = target: T4, E274Q+T14V TyrR (Escherichia coli, UniProt P07604, E274Q/T14V); experiment: cell-based; type: cell-based, E. coli; settings: ligand alone, listed as Tyr
T4 construct: expressed in transfected cells; host or cells: E. coli Nissle 1917 (EcN), plasmid pAGR157
T4 sequence (P07604 whole entry T14V/E274Q): as the sequence (P07604 whole entry) above, with T14V, E274Q counted along it
Protocol: as §2, §3, §1

[3] = system: wild-type TynA and A81L FeaR; experiment: microbe, parasite or virus in culture; type: cell-based, E. coli MG1655; settings: A81L FeaR; 24 h; FIG. 5C
Protocol: as §1

PtynA = experiment: Ligand specificity of 20 FeaR variants at the 81st position with wild-type TynA, fluorescence from PtynA; type: cell-based, E. coli; settings: 0.25 mM DA, PEA, Tyra, Trypta, 24 h
Text: FIG. 5A-FIG. 5D. Engineering FeaR to identify improved phenylethylamine-specific sensors (A) Computationally predicted ligand-binding region of FeaR. Key residues are shown with (magenta) and without (green) phenylethylamine-aldehyde (PEA-aldehyde; cyan) complexed. The structure was predicted using the Robetta web server. Ligand docking was modeled using the Rosetta Ligand Docking Server hosted by ROSIE. The image was generated using PyMOL. […] PtynA was regulated by wild-type TynA and 20 different FeaR variants with the specified amino acid in the 81st position. Residues for each group are listed from left to right in order of increasing size. Non-zero values and error bars are the average and standard deviation of biological triplicate, respectively. Variants with significant expression in response to PEA were determined by unpaired t tests (p<0.05). (C) Transfer curve of PtynA after 24 h of induction with DA, PEA, Tyra, and Trypta. PtynA was regulated by wild-type TynA and the A81L FeaR mutant. Points represent experimental data while the line represents the fitted curve (see e.g., TABLE 2). […] Values and error bars are the average and standard deviation of biological triplicate, respectively. (D) Reorganization of […] with respect to the size and hydropathy index of the 81st residue (see e.g., TABLE 3). The blue area represents characteristic values that permit binding of Tyra. See also FIG. 20-FIG. 25.
Noting the PEA selectivity given by the A81T mutation and the smallest size of the PEA-aldehyde (no OH group), followed by that of Tyra—(1 OH), DA—(2 OHs), and Trypta—(additional 5-membered ring) aldehyde (see e.g., FIG. 3A), it was hypothesized that small residues, including alanine as in wild-type FeaR, would cause ligand promiscuity, with ligand size-dependent response as shown in FIG. 3D. Slightly larger residues such as threonine would have improved selectivity toward the smallest PEA-aldehyde, but much larger or charged residues may fully eliminate ligand binding. It was also hypothesized that the hydropathy index of the 81st residue may also play a role in the sensor's performance due to differences in ligand polarities caused by the different number of hydroxyl groups. […] To test this prediction, A81 was mutated and each mutant was paired with the promiscuous wild-type TynA (see e.g., FIG. 5B). Consistent with the predictions, A81L, A81P, A81 I, and A81N were identified as PEA-specific variants, with 580-fold induction for the A81L sensor (see e.g., FIG. 5C). […] As predicted a clear pattern between the identity of residue 81 and ligand selectivity was observed (see e.g., FIG. 5D, TABLE 3).
as §1

[4] = wild-type TyrR, pAGR010, FIG. 1C, 8 h
[5] = pAGR473, FIG. 2G, 8 h, repressible

In the case of `O=C(O)Cc1ccc(O)c(O)c1` [DOPAC, 3,4-dihydroxyphenylacetic acid], the “response of the sensors” value [1] is reported as “No sensors significantly responded”.

With `O=C(O)Cc1ccc(O)cc1` [HPAA, 4-hydroxyphenylacetic acid] the “response of the sensors” value [1] was “No sensors significantly responded”.

In the case of `O=C(O)Cc1c[nH]c2ccccc12` [IAA, indole-3-acetic acid], the “response of the sensors” value [1] is reported as “No sensors significantly responded”.

For `O=C(O)Cc1ccccc1` [PAA, phenylacetic acid], the “response of the sensors” value [1] was “No sensors significantly responded”.

For `N[C@@H](Cc1ccc(O)cc1)C(=O)O` [Tyrosine, tyrosine], the response [2] was “lack of response”, the “fold repression of PtyrP” value (wild-type TyrR; overexpression of wild-type TyrR) was 59 fold and the Fmax (wild-type TyrR; [4]) was 2470. The Fmin (wild-type TyrR; [4]) was 38.1, the “n (Hill coefficient)” value (wild-type TyrR; [4]) was 1.9 and the EC50 (wild-type TyrR; wild-type TyrR, pAGR010, FIG. 1C, 8 h, read-out: KA (half maximal constant)) was 26 µM. The “response of PtyrP” value (E274Q+D103S TyrR) was “lack of response; also recorded: no apparent response”, the EC50 (R10F TyrR; KA (half maximal constant), pAGR473, FIG. 2G, 8 h, repressible) was 50 µM and 47 µM and the “fold repression of PtyrP” value (R10F TyrR; independent of the presence of Phe, listed as Tyr) was ~12 fold and 15 fold. For the same molecule, the Fmax (R10F TyrR; [5]) was 3210, the Fmin (R10F TyrR; [5]) was 279 and the “n (Hill coefficient)” value (R10F TyrR; [5]) was 2.3. The “response of PtyrP” value (E274Q+T14V TyrR) was “lack of response; also recorded: no apparent response” and the response [3] was “lack of response”.

B1: Leucine (L): FeaR variant with leucine in the 81st position, paired with wild-type TynA (protein, UniProt Q47129 1-301, looked up, variant A81L)
Transcriptional activator FeaR: MNPAVDNEFQQWLSQINQVCGNFTGRLLTERYTGVLDTHFAKGLKLSTVTTSGVNLSRTWQEVKGSDDAWFYTVFQLSGQLIMEQDERQVQIGAGDITLLDASRPCSLYWQESSKQISLLLPRTLLEQYFPHQKPICAERLDADLPMVQLSHRLLQESMNNPALSETESEAALQAMVCLLRPVLHQRESVQPRRERQFQKVVTLIDDNIREEILRPEWIAGETGMSVRSLYRMFADKGLVVAQYIRNRRLDFCADAIRHAADDEKLAGIGFHWGFSDQSHFSTVFKQRFGMTPGEYRRKFR
B1 was tested, and the Phenotype (PtynA) was “PEA specific” and the Selectivity (PtynA) was “PEA only”.

B2: Glutamine (Q): FeaR variant with glutamine in the 81st position, paired with wild-type TynA (protein, UniProt Q47129 1-301, looked up, variant A81Q)
Transcriptional activator FeaR: MNPAVDNEFQQWLSQINQVCGNFTGRLLTERYTGVLDTHFAKGLKLSTVTTSGVNLSRTWQEVKGSDDAWFYTVFQLSGQQIMEQDERQVQIGAGDITLLDASRPCSLYWQESSKQISLLLPRTLLEQYFPHQKPICAERLDADLPMVQLSHRLLQESMNNPALSETESEAALQAMVCLLRPVLHQRESVQPRRERQFQKVVTLIDDNIREEILRPEWIAGETGMSVRSLYRMFADKGLVVAQYIRNRRLDFCADAIRHAADDEKLAGIGFHWGFSDQSHFSTVFKQRFGMTPGEYRRKFR
B2 was tested, and the Phenotype (PtynA) was “No activity” and the Selectivity (PtynA) was “No activity”.

B3: Phenylalanine (F): FeaR variant with phenylalanine in the 81st position, paired with wild-type TynA (protein, UniProt Q47129 1-301, looked up, variant A81F)
Transcriptional activator FeaR: MNPAVDNEFQQWLSQINQVCGNFTGRLLTERYTGVLDTHFAKGLKLSTVTTSGVNLSRTWQEVKGSDDAWFYTVFQLSGQFIMEQDERQVQIGAGDITLLDASRPCSLYWQESSKQISLLLPRTLLEQYFPHQKPICAERLDADLPMVQLSHRLLQESMNNPALSETESEAALQAMVCLLRPVLHQRESVQPRRERQFQKVVTLIDDNIREEILRPEWIAGETGMSVRSLYRMFADKGLVVAQYIRNRRLDFCADAIRHAADDEKLAGIGFHWGFSDQSHFSTVFKQRFGMTPGEYRRKFR
B3 was tested, and the Phenotype (PtynA) was “No activity” and the Selectivity (PtynA) was “No activity”.
